Test results as given in patent publication US20250122181A1, “BENZIMIDAZOLES AS MODULATORS OF IL-17” (Janssen Pharmaceutica NV, priority 2021, published 2025).

How the values were obtained:
[1] = biological target: IL-17A(FLAG-Tagged): IL-17RA(His-Tagged) (Homo sapiens, UniProt Q16552, K93Q); assay: IL-17A(FLAG-Tagged): IL-17RA(His-Tagged) Binding Disruption Eu-HTRF Assay, Protocol 1; conditions: Protocol 1, FLAG tagged IL-17A 2.5 nM; simple average if tested more than once
Outline: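 IC50 came from a one-site competition fit of the acceptor/donor (665/620 nm) HTRF ratio. His-tagged IL-17RA, Eu-anti-FLAG and D2-anti-His were added after a 1 h rt compound preincubation with FLAG-tagged IL-17A dimer in PBS/0.01% Triton X-100, followed by 2 h at rt before reading.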

[2] = system: IL-17A-induced G-CSF production in human normal keratinocyte (NHK); assay: NHK Assay: IL-17A-induced G-CSF production in human normal keratinocyte; assay type: cell-based; conditions: Homo sapiens, Keratinocyte, 24 h, IL-17A 5 ng/mL, simple average if tested more than once
Outline: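 Stimulus rhIL-17A 5 ng/mL final, premixed 1 h rt with compound; adult NHK, 5% FBS, 0.2% DMSO. Viability by CellTiter-Glo vs DMSO.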

Sequence of UniProt Q16552 (Q16552 with tags, fused parts or gaps K93Q): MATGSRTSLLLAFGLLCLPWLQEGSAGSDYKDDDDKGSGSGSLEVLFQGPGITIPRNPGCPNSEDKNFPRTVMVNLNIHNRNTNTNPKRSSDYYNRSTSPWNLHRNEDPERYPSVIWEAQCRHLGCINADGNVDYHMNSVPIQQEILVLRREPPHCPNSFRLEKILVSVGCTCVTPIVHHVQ

| SMILES | IC50 [1] [nM] | IC50 [2] [nM] |
| --- | --- | --- |
| COC[C@H](c1ccc2[nH]c(C(COC(C)(C)C(F)(F)F)NC(=O)c3cnn(CC4CC4)n3)nc2c1)N1CC(F)(F)CNC1=O (single isomer, unassigned) [Example 51, 2-(Cyclopropylmethyl)-N—((R*)-1-(5-((S)-1-(5,5-difluoro-2-oxotetrahydropyrimidin-1(2H)-yl)-2-methoxyethyl)-1H-benzo[d]imidazol-2-yl)-2-((1,1,1-trifluoro-2-methylpropan-2-yl)oxy)ethyl)-2H-1,2,3-triazole-4-carboxamide] | < 50 | 50 to 100 |
| Cc1nonc1C(=O)NC(COC(C)(C)C(F)(F)F)c1nc2cc([C@@H](COC3CC3)N3CC(F)(F)CNC3=O)ccc2[nH]1 (single isomer, unassigned) [Example 56, N—((R*)-1-(5-((S)-2-Cyclopropoxy-1-(5,5-difluoro-2-oxotetrahydropyrimidin-1(2H)-yl)ethyl)-1H-benzo[d]imidazol-2-yl)-2-((1,1,1-trifluoro-2-methylpropan-2-yl)oxy)ethyl)-4-methyl-1,2,5-oxadiazole-3-carboxamide] | < 50 | < 50 |
| CC(C)(OC[C@H](NC(=O)c1nonc1C1CC1)c1nc2cc(CN3CC(C(F)(F)F)NC3=O)ccc2[nH]1)C(F)(F)F (stereo in doubt) [Example 33, 4-Cyclopropyl-N—((R)-1-(5-(((R*)-2-oxo-4-(trifluoromethyl)imidazolidin-1-yl)methyl)-1H-benzo[d]imidazol-2-yl)-2-((1,1,1-trifluoro-2-methylpropan-2-yl)oxy)ethyl)-1,2,5-oxadiazole-3-carboxamide] | 50 to 100 | > 100 |
| CC(C)(OC[C@H](NC(=O)c1nonc1C1CC1)c1nc2cc([C@@H](C3CC3)N3C[C@@H](C(F)(F)F)NC3=O)ccc2[nH]1)C(F)(F)F [Example 1, 4-Cyclopropyl-N—((R)-1-(5-((R)-cyclopropyl((S)-2-oxo-4-(trifluoromethyl)imidazolidin-1-yl)methyl)-1H-benzo[d]imidazol-2-yl)-2-((1,1,1-trifluoro-2-methylpropan-2-yl)oxy)ethyl)-1,2,5-oxadiazole-3-carboxamide] | < 50 | < 50 |
| Cc1nonc1C(=O)N[C@@H](COC(C)(C)C(F)(F)F)c1nc2cc([C@@H](C3CC3)N3C[C@@H](C(F)(F)F)NC3=O)ccc2[nH]1 [Example 2, N—((R)-1-(5-((R)-Cyclopropyl((S)-2-oxo-4-(trifluoromethyl)imidazolidin-1-yl)methyl)-1H-benzo[d]imidazol-2-yl)-2-((1,1,1-trifluoro-2-methylpropan-2-yl)oxy)ethyl)-4-methyl-1,2,5-oxadiazole-3-carboxamide] | < 50 | < 50 |
| CC(C)n1ncc(F)c1C(=O)N[C@@H](COC(C)(C)C(F)(F)F)c1nc2cc([C@@H](C3CC3)N3C[C@@H](C(F)(F)F)NC3=O)ccc2[nH]1 [Example 3, N—((R)-1-(5-((R)-Cyclopropyl((S)-2-oxo-4-(trifluoromethyl)imidazolidin-1-yl)methyl)-1H-benzo[d]imidazol-2-yl)-2-((1,1,1-trifluoro-2-methylpropan-2-yl)oxy)ethyl)-4-fluoro-1-isopropyl-1H-pyrazole-5-carboxamide] | < 50 | < 50 |
| [2H]C([2H])([2H])C([2H])([2H])n1nccc1C(=O)N[C@@H](COC(C)(C)C(F)(F)F)c1nc2cc([C@@H](C3CC3)N3C[C@@H](C(F)(F)F)NC3=O)ccc2[nH]1 [Example 4, N—((R)-1-(5-((R)-Cyclopropyl((S)-2-oxo-4-(trifluoromethyl)imidazolidin-1-yl)methyl)-1H-benzo[d]imidazol-2-yl)-2-((1,1,1-trifluoro-2-methylpropan-2-yl)oxy)ethyl)-1-(ethyl-d5)-1H-pyrazole-5-carboxamide] | < 50 | < 50 |
| CC(C)n1ncnc1C(=O)N[C@@H](COC(C)(C)C(F)(F)F)c1nc2cc([C@@H](C3CC3)N3C[C@@H](C(F)(F)F)NC3=O)ccc2[nH]1 [Example 5, N—((R)-1-(5-((R)-Cyclopropyl((S)-2-oxo-4-(trifluoromethyl)imidazolidin-1-yl)methyl)-1H-benzo[d]imidazol-2-yl)-2-((1,1,1-trifluoro-2-methylpropan-2-yl)oxy)ethyl)-1-isopropyl-1H-1,2,4-triazole-5-carboxamide] | < 50 | < 50 |
| CC(C)(OC[C@H](NC(=O)c1nonc1C1CC1)c1nc2cc([C@@H](C3CC3)N3CC(F)(F)CNC3=O)ccc2[nH]1)C(F)(F)F [Example 22, 4-Cyclopropyl-N—((R)-1-(5-((R)-cyclopropyl(5,5-difluoro-2-oxotetrahydropyrimidin-1(2H)-yl)methyl)-1H-benzo[d]imidazol-2-yl)-2-((1,1,1-trifluoro-2-methylpropan-2-yl)oxy)ethyl)-1,2,5-oxadiazole-3-carboxamide] | < 50 | < 50 |
| Cc1nonc1C(=O)N[C@@H](COC(C)(C)C(F)(F)F)c1nc2cc([C@@H](C3CC3)N3CC(F)(F)CNC3=O)ccc2[nH]1 [Example 23, N—((R)-1-(5-((R)-Cyclopropyl(5,5-difluoro-2-oxotetrahydropyrimidin-1(2H)-yl)methyl)-1H-benzo[d]imidazol-2-yl)-2-((1,1,1-trifluoro-2-methylpropan-2-yl)oxy)ethyl)-4-methyl-1,2,5-oxadiazole-3-carboxamide] | < 50 | < 50 |
| CC(C)n1nccc1C(=O)N[C@@H](COC(C)(C)C(F)(F)F)c1nc2cc([C@@H](C3CC3)N3CC(F)(F)CNC3=O)ccc2[nH]1 [Example 24, N—((R)-1-(5-((R)-Cyclopropyl(5,5-difluoro-2-oxotetrahydropyrimidin-1(2H)-yl)methyl)-1H-benzo[d]imidazol-2-yl)-2-((1,1,1-trifluoro-2-methylpropan-2-yl)oxy)ethyl)-1-isopropyl-1H-pyrazole-5-carboxamide] | < 50 | < 50 |
| Cc1nonc1C(=O)N[C@@H](COC(C)(C)C(F)(F)F)c1nc2ccc(CN3CC(F)(F)CNC3=O)cc2[nH]1 [Example 28, (R)—N-(1-(6-((5,5-Difluoro-2-oxotetrahydropyrimidin-1(2H)-yl)methyl)-1H-benzo[d]imidazol-2-yl)-2-((1,1,1-trifluoro-2-methylpropan-2-yl)oxy)ethyl)-4-methyl-1,2,5-oxadiazole-3-carboxamide] | < 50 | < 50 |
| CC(C)n1nccc1C(=O)N[C@@H](COC(C)(C)C(F)(F)F)c1nc2ccc(CN3CC(F)(F)CNC3=O)cc2[nH]1 [Example 29, (R)—N-(1-(6-((5,5-Difluoro-2-oxotetrahydropyrimidin-1(2H)-yl)methyl)-1H-benzo[d]imidazol-2-yl)-2-((1,1,1-trifluoro-2-methylpropan-2-yl)oxy)ethyl)-1-isopropyl-1H-pyrazole-5-carboxamide] | < 50 | < 50 |
| CC(C)(OC[C@H](NC(=O)c1nonc1C1CC1)c1nc2ccc(CN3CC(F)(F)CNC3=O)cc2[nH]1)C(F)(F)F [Example 30, (R)-4-Cyclopropyl-N-(1-(6-((5,5-difluoro-2-oxotetrahydropyrimidin-1(2H)-yl)methyl)-1H-benzo[d]imidazol-2-yl)-2-((1,1,1-trifluoro-2-methylpropan-2-yl)oxy)ethyl)-1,2,5-oxadiazole-3-carboxamide] | < 50 | < 50 |
| COC[C@H](c1ccc2[nH]c([C@@H](NC(=O)c3nonc3C)[C@@H](C)O[C@@H](C)C(F)(F)F)nc2c1)N1CC(F)(F)CNC1=O [Example 50, N-((1R,2R)-1-(5-((S)-1-(5,5-Difluoro-2-oxotetrahydropyrimidin-1(2H)-yl)-2-methoxyethyl)-1H-benzo[d]imidazol-2-yl)-2-(((S)-1,1,1-trifluoropropan-2-yl)oxy)propyl)-4-methyl-1,2,5-oxadiazole-3-carboxamide] | < 50 | < 50 |
| COC[C@H](c1ccc2[nH]c([C@@H](NC(=O)c3nonc3C)[C@@H](C)O[C@@H](C)C(F)(F)F)nc2c1)N1C[C@@H](C(F)(F)F)NC1=O [Example 62, N-((1R,2R)-1-(5-((S)-2-Methoxy-1-((S)-2-oxo-4-(trifluoromethyl)imidazolidin-1-yl)ethyl)-1H-benzo[d]imidazol-2-yl)-2-(((S)-1,1,1-trifluoropropan-2-yl)oxy)propyl)-4-methyl-1,2,5-oxadiazole-3-carboxamide] | < 50 | < 50 |
| Cc1nonc1C(=O)N[C@@H](COC(C)(C)C(F)(F)F)c1nc2cc([C@@H](C3CC3)N3C[C@@H](C4CC4)NC3=O)ccc2[nH]1 [Example 84, N—((R)-1-(5-((R)-Cyclopropyl((R)-4-cyclopropyl-2-oxoimidazolidin-1-yl)methyl)-1H-benzo[d]imidazol-2-yl)-2-((1,1,1-trifluoro-2-methylpropan-2-yl)oxy)ethyl)-4-methyl-1,2,5-oxadiazole-3-carboxamide] | < 50 | < 50 |
| CC(C)n1nccc1C(=O)N[C@H](c1nc2c(F)cc([C@@H](C3CC3)N3C[C@@H](C(F)(F)F)NC3=O)cc2[nH]1)[C@@H](C)O[C@H](C)C(F)(F)F [Example 85, N-[(1R,2R)-1-[6-[(R)-Cyclopropyl-[(4S)-2-oxo-4-(trifluoromethyl)imidazolidin-1-yl]methyl]-4-fluoro-1H-benzimidazol-2-yl]-2-[(1R)-2,2,2-trifluoro-1-methyl-ethoxy]propyl]-2-isopropyl-pyrazole-3-carboxamide] | 50 to 100 | < 50 |
